Values of other authors in US20250057810A1, “AQUEOUS MELATONIN FORMULATION” (AGB-Pharma AB, priority 2021, published 2025).

Settings: in vivo

COc1ccc2[nH]cc(CCNC(C)=O)c2c1 [melatonin, N-acetyl-5-methoxytryptamine]
blood levels returning to normal daytime levels after administration: 6 to 8 h
